Laboratory results taken from ChEMBL document CHEMBL3885861, “Open TG-GATES”.

Organism: Rattus norvegicus
Test: Open TG-GATES - Regimen: Daily Repeat
Type: toxicity, organism-based, Sprague-Dawley
Parameters: regimen Daily Repeat, gender Male, age 6 weeks
Details: in vivo, po, route gavage; for APTT / Bas / Eos / Fbg / Hb / Ht / Lym / MCH / MCHC / MCV / Mono / Neu / PT / Plat / RBC / Ret / WBC: tissue Blood; for KIDNEY_L / KIDNEY_R / KIDNEY_TOTAL: tissue Kidney; for LIVER: tissue Liver; for ALP / ALT / AST / BUN / CRE / DBIL / GLC / K / Na / PL / RALB / TBIL / TC / TG / TP / gamma-GTP: tissue Plasma
[1] = 0 mg/kg, 72 h, dose level Control, time 3 day
[2] = 0 mg/kg, […], dose level Control, time 7 day
[3] = 0 mg/kg, […], dose level Control, time 14 day
[4] = 0 mg/kg, […], dose level Control, time 28 day
[5] = 25 mg/kg, 72 h, dose level Low, time 3 day
[6] = 25 mg/kg, […], dose level Low, time 7 day
[7] = 25 mg/kg, […], dose level Low, time 14 day
[8] = 25 mg/kg, […], dose level Low, time 28 day

## CN1C(=O)CN=C(c2ccccc2)c2cc(Cl)ccc21 [DIAZEPAM]
[1]
  TERMINAL_BW: 246.7 g
  APTT: 16.3 s
  Bas: 0%
  Eos: 1.2%
  Fbg: 235.6 mg/dL
  Hb: 13.5 g/dL
  Ht: 40.6%
  Lym: 78.6%
  MCH: 21.4 pg
  MCHC: 33.2%
  MCV: 64.4 fL
  Mono: 6.4%
  Neu: 14.2%
  PT: 12 s
  Plat: 114.2 x10_4/uL
  RBC: 630.6 x10_4/ul
  Ret: 6.6%
  WBC: 104 x10_2/uL
  KIDNEY_L: 1.1 g
  KIDNEY_R: 1.1 g
  KIDNEY_TOTAL: 2.2 g
  LIVER: 12.5 g
  ALP: 817.2 IU/L
  ALT: 34.2 IU/L
  AST: 59.4 IU/L
  BUN: 17.2 mg/dL
  CRE: 0.5 mg/dL
  DBIL: 0.006 mg/dL
  GLC: 198.8 mg/dL
  K: 5 meq/L
  Na: 138.9 meq/L
  PL: 154 mg/dL
  RALB: 4 g/dL
  TBIL: 0.3 mg/dL
  TC: 78.4 mg/dL
  TG: 115.4 mg/dL
  TP: 6 g/dL
  gamma-GTP: 1.6 IU/L
[2]
  TERMINAL_BW: 289.2 g
  APTT: 16 s
  Bas: 0%
  Eos: 1%
  Fbg: 237.8 mg/dL
  Hb: 14.2 g/dL
  Ht: 42.8%
  Lym: 79.2%
  MCH: 21.8 pg
  MCHC: 33.2%
  MCV: 65.6 fL
  Mono: 9.4%
  Neu: 11%
  PT: 11.4 s
  Plat: 106.5 x10_4/uL
  RBC: 653.4 x10_4/ul
  Ret: 6.3%
  WBC: 120.8 x10_2/uL
  KIDNEY_L: 1.2 g
  KIDNEY_R: 1.3 g
  KIDNEY_TOTAL: 2.5 g
  LIVER: 14.8 g
  ALP: 843.2 IU/L
  ALT: 37.2 IU/L
  AST: 60.4 IU/L
  BUN: 17.8 mg/dL
  CRE: 0.5 mg/dL
  DBIL: 0.02 mg/dL
  GLC: 188.8 mg/dL
  K: 5.1 meq/L
  Na: 137.6 meq/L
  PL: 184.8 mg/dL
  RALB: 4.2 g/dL
  TBIL: 0.3 mg/dL
  TC: 92.8 mg/dL
  TG: 164.6 mg/dL
  TP: 6.4 g/dL
  gamma-GTP: 1.6 IU/L
[3]
  TERMINAL_BW: 333.2 g
  APTT: 16.4 s
  Bas: 0%
  Eos: 0.6%
  Fbg: 234 mg/dL
  Hb: 15.2 g/dL
  Ht: 45.6%
  Lym: 80.6%
  MCH: 20.9 pg
  MCHC: 33.3%
  MCV: 62.9 fL
  Mono: 3.6%
  Neu: 14.8%
  PT: 12 s
  Plat: 92.8 x10_4/uL
  RBC: 725.4 x10_4/ul
  Ret: 4.5%
  WBC: 149.8 x10_2/uL
  KIDNEY_L: 1.3 g
  KIDNEY_R: 1.3 g
  KIDNEY_TOTAL: 2.7 g
  LIVER: 14.8 g
  ALP: 714 IU/L
  ALT: 37.4 IU/L
  AST: 68.2 IU/L
  BUN: 19.4 mg/dL
  CRE: 0.6 mg/dL
  DBIL: 0.01 mg/dL
  GLC: 183.2 mg/dL
  K: 4.6 meq/L
  Na: 141.1 meq/L
  PL: 149.2 mg/dL
  RALB: 4 g/dL
  TBIL: 0.3 mg/dL
  TC: 72 mg/dL
  TG: 131.8 mg/dL
  TP: 6.4 g/dL
  gamma-GTP: 1 IU/L
[4]
  TERMINAL_BW: 416.1 g
  APTT: 17 s
  Bas: 0%
  Eos: 1.2%
  Fbg: 227.2 mg/dL
  Hb: 15.8 g/dL
  Ht: 47.5%
  Lym: 83.6%
  MCH: 19 pg
  MCHC: 33.3%
  MCV: 57 fL
  Mono: 6.4%
  Neu: 9%
  PT: 12.3 s
  Plat: 102.6 x10_4/uL
  RBC: 833 x10_4/ul
  Ret: 2.2%
  WBC: 146.4 x10_2/uL
  KIDNEY_L: 1.4 g
  KIDNEY_R: 1.5 g
  KIDNEY_TOTAL: 2.9 g
  LIVER: 17.1 g
  ALP: 591.2 IU/L
  ALT: 28.4 IU/L
  AST: 54.2 IU/L
  BUN: 19.8 mg/dL
  CRE: 0.7 mg/dL
  DBIL: 0.002 mg/dL
  GLC: 182.8 mg/dL
  K: 4.5 meq/L
  Na: 139.4 meq/L
  PL: 147.8 mg/dL
  RALB: 4.1 g/dL
  TBIL: 0.2 mg/dL
  TC: 67.2 mg/dL
  TG: 165.6 mg/dL
  TP: 6.6 g/dL
  gamma-GTP: 1.2 IU/L
[5]
  TERMINAL_BW: 248 g
  APTT: 16.5 s
  Bas: 0%
  Eos: 1%
  Fbg: 230 mg/dL
  Hb: 13.9 g/dL
  Ht: 42%
  Lym: 84%
  MCH: 21.5 pg
  MCHC: 33.2%
  MCV: 64.8 fL
  Mono: 3.8%
  Neu: 11.2%
  PT: 12 s
  Plat: 100.7 x10_4/uL
  RBC: 647.8 x10_4/ul
  Ret: 6.3%
  WBC: 155.1 x10_2/uL
  KIDNEY_L: 1.1 g
  KIDNEY_R: 1.1 g
  KIDNEY_TOTAL: 2.1 g
  LIVER: 12 g
  ALP: 908.6 IU/L
  ALT: 37.4 IU/L
  AST: 63.4 IU/L
  BUN: 16.8 mg/dL
  CRE: 0.6 mg/dL
  DBIL: 0.016 mg/dL
  GLC: 193.2 mg/dL
  K: 4.7 meq/L
  Na: 139.3 meq/L
  PL: 150.4 mg/dL
  RALB: 4.1 g/dL
  TBIL: 0.3 mg/dL
  TC: 81.4 mg/dL
  TG: 76.4 mg/dL
  TP: 6 g/dL
  gamma-GTP: 1 IU/L
[6]
  TERMINAL_BW: 279.2 g
  APTT: 16.6 s
  Bas: 0%
  Eos: 0.8%
  Fbg: 223 mg/dL
  Hb: 14.2 g/dL
  Ht: 42.5%
  Lym: 79.6%
  MCH: 20.8 pg
  MCHC: 33.4%
  MCV: 62.3 fL
  Mono: 3.8%
  Neu: 16.2%
  PT: 11.4 s
  Plat: 116.1 x10_4/uL
  RBC: 681.6 x10_4/ul
  Ret: 5.7%
  WBC: 115.6 x10_2/uL
  KIDNEY_L: 1.2 g
  KIDNEY_R: 1.2 g
  KIDNEY_TOTAL: 2.4 g
  LIVER: 14.1 g
  ALP: 886.2 IU/L
  ALT: 33.6 IU/L
  AST: 62 IU/L
  BUN: 18.8 mg/dL
  CRE: 0.5 mg/dL
  DBIL: 0.024 mg/dL
  GLC: 188.2 mg/dL
  K: 4.9 meq/L
  Na: 137.7 meq/L
  PL: 170.4 mg/dL
  RALB: 4.1 g/dL
  TBIL: 0.3 mg/dL
  TC: 77.8 mg/dL
  TG: 168.6 mg/dL
  TP: 6.1 g/dL
  gamma-GTP: 1.2 IU/L
[7]
  TERMINAL_BW: 331.4 g
  APTT: 16.6 s
  Bas: 0%
  Eos: 0.8%
  Fbg: 225.8 mg/dL
  Hb: 14.8 g/dL
  Ht: 44.6%
  Lym: 83.2%
  MCH: 20.1 pg
  MCHC: 33.3%
  MCV: 60.3 fL
  Mono: 5.6%
  Neu: 10.6%
  PT: 12 s
  Plat: 110.6 x10_4/uL
  RBC: 740 x10_4/ul
  Ret: 4.1%
  WBC: 120.7 x10_2/uL
  KIDNEY_L: 1.3 g
  KIDNEY_R: 1.3 g
  KIDNEY_TOTAL: 2.6 g
  LIVER: 14.8 g
  ALP: 848.8 IU/L
  ALT: 34.4 IU/L
  AST: 64.4 IU/L
  BUN: 18.4 mg/dL
  CRE: 0.6 mg/dL
  DBIL: 0.002 mg/dL
  GLC: 190.2 mg/dL
  K: 4.4 meq/L
  Na: 140.3 meq/L
  PL: 148.2 mg/dL
  RALB: 4 g/dL
  TBIL: 0.3 mg/dL
  TC: 66.4 mg/dL
  TG: 154.8 mg/dL
  TP: 6.1 g/dL
  gamma-GTP: 0.8 IU/L
[8]
  TERMINAL_BW: 411.1 g
  APTT: 18 s
  Bas: 0%
  Eos: 0.6%
  Fbg: 223.8 mg/dL
  Hb: 15.8 g/dL
  Ht: 47.2%
  Lym: 83.4%
  MCH: 19.3 pg
  MCHC: 33.4%
  MCV: 57.7 fL
  Mono: 3.6%
  Neu: 12%
  PT: 12.1 s
  Plat: 102.8 x10_4/uL
  RBC: 818.6 x10_4/ul
  Ret: 2.7%
  WBC: 154.6 x10_2/uL
  KIDNEY_L: 1.4 g
  KIDNEY_R: 1.4 g
  KIDNEY_TOTAL: 2.8 g
  LIVER: 16.9 g
  ALP: 483.4 IU/L
  ALT: 30.6 IU/L
  AST: 60.4 IU/L
  BUN: 19.8 mg/dL
  CRE: 0.6 mg/dL
  DBIL: 0.016 mg/dL
  GLC: 201.4 mg/dL
  K: 4.3 meq/L
  Na: 140.7 meq/L
  PL: 135.6 mg/dL
  RALB: 4 g/dL
  TBIL: 0.3 mg/dL
  TC: 63.6 mg/dL
  TG: 134.2 mg/dL
  TP: 6.5 g/dL
  gamma-GTP: 1 IU/L
